Data: publication PMC12881674, “Activation of TRPV3 channels in bladder cancer cells stimulates ATP release” (Molecular Pharmacology, 2025)

Biological target: T1, human TRPM2 (Homo sapiens, UniProt O94759)
T1 construct: expressed in transfected cells; host or cells: HEK293
Assay: fluo-4 Ca2+ assay selectivity, HEK cells expressing human TRPM2
Assay type: cell-based
Details: concentrations up to 50 μM
Text: KU-19-19 (DSMZ no. ACC 395), CAL-29 (DSMZ no. ACC 515), 647-V (DSMZ no. ACC 414), RT-4 (DSMZ no. ACC 412), and RT-112 (DSMZ no. ACC 418) bladder cancer cell lines were obtained from the Leibniz Institute DSMZ (German Collection of Microorganisms and Cell Cultures). Human TRPV3 (NM_145068, purchased from OriGene) and mouse TRPV3 (NM_001371006), rat TRPV1, mouse TRPV2, mouse TRPV4, human TRPM2, human TRPM8, and human TRPA1 were stably transfected in HEK293 cells as described before.[27] […]
All fluorometric Ca^2+ assays were performed in HBS buffer at room temperature. […] For the primary compound screening and the generation of concentration-response analyses, a robotic liquid handling station (Freedom Evo 150; Tecan) with a built-in custom-made fluorescence plate imager was used. […] Fluorescence was excited using a 470-nm light-emitting diode, and emitted light was imaged through a 515-nm–long pass filter with a cooled Zyla 5.5 camera (Andor). Fluorescence was recorded and processed under the control of the μ-Manager 2.0 gamma software (https://micro-manager.org.[28]). After recording baseline fluorescence, compounds were dispensed into the wells via the liquid handling device. […] For further analysis, fluorescence signals were calculated for each well, corrected for background intensities and normalized to the initial signals. […]

T1 sequence (O94759 whole entry): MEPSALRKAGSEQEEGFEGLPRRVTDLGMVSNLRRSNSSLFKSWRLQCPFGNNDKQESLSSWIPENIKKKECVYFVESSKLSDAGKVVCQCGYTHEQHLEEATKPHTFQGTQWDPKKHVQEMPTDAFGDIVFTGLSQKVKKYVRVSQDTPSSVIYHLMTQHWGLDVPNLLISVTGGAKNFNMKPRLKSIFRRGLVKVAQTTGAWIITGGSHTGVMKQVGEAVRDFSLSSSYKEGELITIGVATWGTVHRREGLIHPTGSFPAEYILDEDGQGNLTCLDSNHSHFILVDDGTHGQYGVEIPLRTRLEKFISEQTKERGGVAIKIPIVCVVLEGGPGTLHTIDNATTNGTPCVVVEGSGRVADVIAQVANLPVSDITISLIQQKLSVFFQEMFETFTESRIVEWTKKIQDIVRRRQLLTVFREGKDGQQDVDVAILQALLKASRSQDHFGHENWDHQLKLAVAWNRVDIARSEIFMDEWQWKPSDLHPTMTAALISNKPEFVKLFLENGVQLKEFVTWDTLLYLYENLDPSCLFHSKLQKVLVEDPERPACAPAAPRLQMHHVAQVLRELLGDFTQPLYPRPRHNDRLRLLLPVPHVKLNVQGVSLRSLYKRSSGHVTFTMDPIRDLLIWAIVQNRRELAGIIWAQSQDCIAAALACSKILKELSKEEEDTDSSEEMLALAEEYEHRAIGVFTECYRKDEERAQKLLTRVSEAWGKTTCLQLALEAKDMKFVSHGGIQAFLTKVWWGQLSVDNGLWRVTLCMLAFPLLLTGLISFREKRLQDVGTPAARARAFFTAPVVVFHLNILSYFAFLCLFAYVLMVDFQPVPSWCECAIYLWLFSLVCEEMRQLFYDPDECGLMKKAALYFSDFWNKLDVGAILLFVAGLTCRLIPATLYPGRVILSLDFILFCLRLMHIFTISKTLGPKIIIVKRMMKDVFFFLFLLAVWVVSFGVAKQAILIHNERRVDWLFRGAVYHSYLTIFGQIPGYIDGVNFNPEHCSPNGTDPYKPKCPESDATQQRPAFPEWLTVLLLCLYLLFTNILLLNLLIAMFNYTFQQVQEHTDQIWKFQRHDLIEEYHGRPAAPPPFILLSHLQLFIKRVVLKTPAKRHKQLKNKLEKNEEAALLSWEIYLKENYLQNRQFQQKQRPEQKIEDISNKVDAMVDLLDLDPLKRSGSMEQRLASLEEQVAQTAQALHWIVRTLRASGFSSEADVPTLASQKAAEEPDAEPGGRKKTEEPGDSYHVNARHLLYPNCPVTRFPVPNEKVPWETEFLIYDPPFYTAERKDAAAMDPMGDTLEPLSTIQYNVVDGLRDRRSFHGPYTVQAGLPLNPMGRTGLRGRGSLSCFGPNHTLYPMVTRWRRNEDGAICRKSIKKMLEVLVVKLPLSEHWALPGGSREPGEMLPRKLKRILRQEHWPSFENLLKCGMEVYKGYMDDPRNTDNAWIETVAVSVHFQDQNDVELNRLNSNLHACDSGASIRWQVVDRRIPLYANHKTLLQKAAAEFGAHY

Compound: COC(=O)C12CN(Cc3ccccc3)CC1(C(=O)OC)CN(Cc1ccccc1)C2 (stereo not shown) [AV3-1]
- effect on TRPM2: no effect
